Earlier results as cited in article PMC12525602, “Identification of Selective α-Glucosidase Inhibitors via Virtual Screening with Machine Learning” (Molecules, 2025).

test system: α-glucosidase; details: Table S5 modeling dataset; activity label 1 = active, 0 = inactive; cited from earlier work

Compound | activity
Brc1cccc(CSc2nnc(COc3cccc4cccnc34)o2)c1 [compound 99] | 0
Clc1ccc(CSc2nnc(COc3cccc4cccnc34)o2)c(Cl)c1 [compound 111] | 0
c1ccc(CSc2nnc(COc3cccc4cccnc34)o2)cc1 [compound 116] | 0
N#Cc1c(-c2ccc(Cl)cc2)cc(-c2ccc(Cl)cc2)c(C#N)c1N [compound 131] | 0

same assay, conditions: activity label in the 300-compound modeling dataset (Table S5); 1 = active, 0 = inactive; cited from earlier work

Compound | activity
COc1cccc(C(=O)C2C(O)c3ccccc3S(=O)(=O)N2CC(=O)Nc2ccc(Br)cc2)c1 (stereo not drawn) [compound 202] | 1
CC(C)(C)c1ccc(-c2csc(N/N=C/c3ccccc3OCc3cc4ccccc4oc3=O)n2)cc1 [compound 215] | 1
COc1cccc(C(=O)C2C(O)c3ccccc3S(=O)(=O)N2CC(=O)Nc2cccc(C)c2)c1 (stereo not drawn) [compound 196] | 1
Cc1ccc(-c2cc(C(F)(F)F)nn2-c2ccc(S(=O)(=O)NC(=O)c3ccccc3)cc2)cc1 [compound 197] | 1
Oc1cccc(-c2cc3cccc(Cl)c3o2)c1 [compound 203] | 1
Oc1cc(O)cc(-c2cc3cccc(Cl)c3o2)c1 [compound 212] | 1
Nc1ccc(CCC(=O)N2CC[C@@H](O)[C@@H](O)C2)cc1 [compound 190] | 1

same assay, conditions: activity label of the 300-compound modeling dataset, Table S5; cited from earlier work

Compound | activity
O=c1c(O)c(-c2ccc(O)cc2)oc2cc(O)ccc12 [compound 252] | 1
Brc1ccc(CNc2cccc(-c3nc4ccccc4[nH]3)c2)cc1 [compound 275] | 1
Cc1ccc(C(=O)COc2c(I)cc(Cl)c3cccnc23)cc1 [compound 238] | 1
Cc1ccc(/C(CSc2nnc3c(n2)[nH]c2ccccc23)=N\c2nnc(-c3ccc([N+](=O)[O-])cc3)s2)cc1 [compound 239] | 1

same assay, conditions: activity label of the modeling dataset (Table S5), α-glucosidase; 1 = active, 0 = inactive; cited from earlier work

Compound | activity
N#Cc1c(-c2ccc(Cl)cc2)cc(-c2cccc(Cl)c2)c(C#N)c1N [compound 12] | 0
N#Cc1c(-c2ccncc2)cc(-c2cccc(Cl)c2)c(C#N)c1N [compound 36] | 0
CC1CCN(c2ccc(/C=N/Nc3nc(-c4ccc(Br)cc4)cs3)cc2)CC1 [compound 15] | 0
COc1ccc(-n2cc(CSc3nnc(COc4cccc5cccnc45)o3)nn2)cc1 [compound 17] | 0
COc1ccc(Nc2nnc(-c3cc4cc(C#N)ccc4[nH]3)s2)cc1 [compound 40] | 0

same assay, conditions: activity label of the modeling dataset, Table S5 (1 = active, 0 = inactive); cited from earlier work

Compound | activity
O=[N+]([O-])c1ccc(Cn2cc(CSc3nnc(COc4cccc5cccnc45)o3)nn2)cc1 [compound 56] | 0
C[C@@H]1O[C@@H](Oc2c(-c3ccc(O)c(O)c3)oc3cc(O)cc(O)c3c2=O)[C@H](O)[C@H](O)[C@H]1O [compound 45] | 0
CC1CCCN(c2ccc(/C=N/Nc3nc(-c4ccc(F)cc4)cs3)cc2)C1 (stereo not drawn) [compound 87] | 0
O=c1c(O[C@@H]2O[C@H](CO)[C@H](O)[C@H](O)[C@H]2O)c(-c2ccc(O)cc2)oc2cc(O)cc(O)c12 [compound 65] | 0

same assay, conditions: activity label of the modeling dataset, Table S5; cited from earlier work

Compound | activity
O=C(NNS(=O)(=O)c1ccc(Br)cc1)c1cc2cc(F)ccc2[nH]1 [compound 182] | 1
O=C1/C(=N\N=C\c2ccc(OCc3cn(Cc4ccccc4F)nn3)cc2)c2ccccc2N1c1ccc(Br)cc1 [compound 148] | 0
COc1cc(O)c(CC=C(C)C)c(O)c1C(=O)/C=C/c1ccc(O)cc1 [compound 167] | 1
O=[N+]([O-])c1ccccc1-c1nnc(/N=C(/CSc2nnc3c(n2)[nH]c2ccccc23)c2ccc(Br)cc2Br)s1 [compound 153] | 1
O=C(CCc1ccc(O)cc1)c1c(O)cc(O[C@@H]2O[C@H](CO)[C@@H](O)[C@H](O)[C@H]2O)cc1O [compound 155] | 1
CC(C)=CCC1=C(O)C(CC=C(C)C)(CC=C(C)C)C(=O)C(C(=O)CC(C)C)=C1O [compound 163] | 1
